Laboratory results reported in paper PMC11820915, “Identification of HIV-1 Reverse Transcriptase-Associated Ribonuclease H Inhibitors Based on 2-Hydroxy-1,4-naphthoquinone Mannich Bases” (Molecules, 2025).
Several values for one entry are separate records, joined by “and”; a condition that tells them apart may be missing. Equal entries are not always repeated. Where two headings read alike, the source gives them in different places.

What was measured:
[1] = target: T1, HIV-1 RT-associated RNase H (Human immunodeficiency virus type 1 group M subtype B, UniProt P03366); assay: HIV-1 RT-associated RNase H inhibition assay; type: biochemical; parameters: 50 nM of HIV-1 RT; conditions: for IC50: 50 nM HIV-1 RT, 15 min at 37 °C, triplicate
Procedure: HIV-1 RT-associated RNase H inhibition assays were carried out in a 384 multiwell format, in 30 µL reaction volume containing 50 mM Tris–HCl buffer pH 7.8, 6 mM MgCl2, 1 mM dithiothreitol (DTT), 80 mM KCl, 0.25 µM hybrid RNA/DNA 5’-[…]-Fluorescin-3’ 5’-Dabcyl-[…]-3’ increasing concentrations of inhibitor, whose dilutions were made in DMSO, and 50 nM of HIV-1 RT. The reaction mixture was incubated for 15 min at 37 °C and products were measured with a multilabel counter plate reader VictorNivo5 (PerkinElmer, Waltham, MA, USA) equipped with filters for 490/528 nm. IC50, the concentration able to inhibit 50% of enzymatic activity, was calculated by non-linear regression curve fit using Prisme v9.0. All experiments were conducted in triplicate.

SARS-CoV-2 = assay: microbe, parasite or virus in culture; type: cell-based; conditions: for EC50: Severe acute respiratory syndrome coronavirus 2, in the presence of 2 µM CP-100356, read-out: EC50 for viral replication inhibition; for EC50 / Inhibitory activity against SARS-CoV-2 replication (in words): VEROE6-EGFP cells; for Inhibitory activity against SARS-CoV-2 replication (in words): with CP-100356
in vitro = conditions: African green monkey
HIV-1 [2] = assay: HIV-1 infectivity in HelaP4 cells (CPRG assay); type: cell-based; conditions: for Reduction of HIV-1 infectivity: at highest non-toxic concentration, 48 h
HIV-1 [3] = type: cell-based; conditions: for Antiviral effect, reduction of GFP fluorescence expression (in words): MT4 cells, FACS
HelaP4 cells = assay: Toxicity to HelaP4 cells (MTT assay); type: cell-based
Procedure: HelaP4 cells (10^4 cells/well) were infected with viruses (7.5 ng p24) in the presence of increasing concentration of compounds. Cells were incubated for 48 h before analysis. β-Galactosidase is under the control of the HIV-1 LTR. Infectivity is correlated with the number of infected cells. Cells were lysed for 10 min at 37 °C using 80 µL of lysis buffer (Na2HPO4 60 mM, NaH2PO4 60 mM, KCl 10 mM, MgSO4 10 mM, EDTA 25 mM, and NP-40 0.125%). After lysis, 170 µL of CPRG buffer (phosphate buffer 100 mM, pH 7.4, MgCl2 100 mM, and CPRG 20 mM) was added to each well. The plates were incubated at 37 °C until the color changed to dark red. Finally, a plate reader was used to read the absorbance at 572 nm. The MTT assay varies based on NAD(P)H-dependent cellular oxidoreductase enzymes of viable cells reducing the yellow tetrazolium salt MTT (3-(4,5-dimethylthiazol2-yl)-2,5-diphenyltetrazolium bromide). Spectrophotometric measurement can be used to quantify the insoluble purple formazan product that is produced by this reaction. An amount of 10 µL of MTT reagent (7.5 mg/mL in PBS, pH 7.4) was added to each well of the microtiter plate before incubating at 37 °C for 2 h. After 2 h of incubation, 100 µL of MTT lysis buffer (SDS 10%, HCl 0.01 N, pH 4.7) was added and the resulting optical density (OD) readings were measured at 572 nm.

MT4 cells = assay: Toxicity ZombieAqua test in MT4 cells; type: cell-based; conditions: 30 µM, Zombie Aqua
Procedure: MT4 cells (10^5 cells/well) were infected with viruses (100 ng/well) in the presence of increasing concentration of lawsone compounds and the positive control efavirenz (Sigma-Aldrich, St. Louis, MO, USA). After 48 h, cells from each well were washed with PBS and centrifuged (1500 rpm, 5 min). Then, cells were incubated with Zombie Aqua™ (Biolegend, San Diego, CA, USA) dye solution for 15 min in the dark at room temperature to stain dead cells. After that, the cell pellets were washed one more time with PBS before analysis by flow cytometer. Acquisition was performed on a FACS Celesta (BD Biosciences) and analysis was performed using FlowJo v10 software. Cells were first gated on the FSC-H and FSC-A parameters to exclude doublet cells. Then, living cells were selected according to the Zombie Acqua staining (dead cells are stained whereas living cells are not). Finally, the percentage of HIV-1infected cells was measured by analyzing the percentage of GFP+ cells among living cells.

HIV-1 viral DNA = assay: qPCR of total HIV-1 viral DNA in infected MT4 cells; type: cell-based; conditions: 30 µM
Procedure: At the same time point, cells were harvested and washed with PBS before centrifugation to form pellets. DNA extraction was carried out using the QIAamp DNA Blood Mini Kit (Qiagen, Hilden, Germany). The procedure involved lysing the cells with AL buffer and Proteinase K to release the DNA. The lysate was then mixed with ethanol to facilitate DNA binding to a silica-based membrane in a spin column. The bound DNA was washed with buffers AW1 and AW2 to remove contaminants, and, finally, the DNA was eluted in 100 μL of water. DNA quantification was performed using quantitative polymerase chain reaction (qPCR) with the Roche LightCycler instrument. Accordingly, DNA quantification was conducted using real-time PCR (qPCR) on the same apparatus. This analysis utilized nucleic acid amounts corresponding to approximately 200,000 cells. The sequences of primers and probes employed for qPCR, aimed at absolute quantification of total HIV-1 viral DNA, have been previously described. The copy numbers of total HIV-1 DNA were ascertained from calibration curves derived from amplifying known quantities of cloned DNA with matching sequences.

[4] = target: T1, HIV-1 RT-associated RNase H; conditions: negative control; ref Min et al. [33]; cited from earlier work
[5] = read-out: IC50, HIV-1 RT-associated RNase H activity
[6] = IC50, HIV-1 RT-associated RNase H activity

## CCCCCCCNC(C1=C(O)C(=O)c2ccccc2C1=O)c1ccccn1 (stereo not shown) [Compound 1a]
[1]; [5]
  IC50: 31.2 ± 6.5 µM

## CCCCCCCCCCCCNC(C1=C(O)C(=O)c2ccccc2C1=O)c1ccccn1 (stereo not shown) [Compound 1b]
[1]; [5]
  IC50: 4 to 4.4 µM and 4.4 µM

## CCCCCCCCCCCCCCNC(C1=C(O)C(=O)c2ccccc2C1=O)c1ccccn1 (stereo not shown) [Compound 1c]
[1]; [5]
  IC50: 4 to 4.4 µM and 4 µM

## CCCCCCCCCCCCCCCCNC(C1=C(O)C(=O)c2ccccc2C1=O)c1ccccn1 (stereo not shown) [Compound 1d]
[1]; [5]
  IC50: 10.7 ± 4.1 µM

## O=C1C(O)=C(C(NCc2ccccc2)c2ccccn2)C(=O)c2ccccc21 (stereo not shown) [Compound 1e]
SARS-CoV-2
  SI, selectivity index CC50/EC50: 3.15
  EC50: 11.2 ± 2.1 µM
  Inhibitory activity against SARS-CoV-2 replication (in words): moderate inhibitory activity
In vitro
  CC50: 35.3 ± 1.3 µM
[1]; [6]
  IC50: 2.8 to 3.1 µM and 3.1 µM

## O=C1C(O)=C(C(NCc2ccc(F)c(F)c2)c2ccccn2)C(=O)c2ccccc21 (stereo not shown) [Compound 1f]
[1]; [5]
  IC50: 17.4 ± 4.1 µM

## CCCCCCCCCCCCNC(C1=C(O)C(=O)c2ccccc2C1=O)c1cccc(Br)n1 (stereo not shown) [Compound 1g, 3-[(Dodecylamino)(6-bromo-2-pyridyl)methyl]-2-hydroxy-1,4-naphthoquinone]
[1]; [5]
  IC50: > 100 µM

## CCCCCCCCCCCCCCNC(C1=C(O)C(=O)c2ccccc2C1=O)c1cccc(Br)n1 (stereo not shown) [Compound 1h, 3-[(Tetradecylamino)(6-bromo-2-pyridyl)methyl]-2-hydroxy-1,4-naphthoquinone]
[1]; [5]
  IC50: > 100 µM

## CCCCCCCCCCCCCCCCNC(C1=C(O)C(=O)c2ccccc2C1=O)c1cccc(Br)n1 (stereo not shown) [Compound 1i, 3-[(Hexadecylamino)(6-bromo-2-pyridyl)methyl]-2-hydroxy-1,4-naphthoquinone]
[1]; [5]
  IC50: 78.6 ± 11.5 µM

## O=C1C(O)=C(C(NCc2ccccc2)c2cccc(Br)n2)C(=O)c2ccccc21 (stereo not shown) [Compound 1j, 3-[(Benzylamino)(6-bromo-2-pyridyl)methyl]-2-hydroxy-1,4-naphthoquinone]
[1]; [5]
  IC50: > 100 µM

## CCCCCCCCCCCCCCNC(C1=C(O)C(=O)c2ccccc2C1=O)c1ccccc1 (stereo not shown) [Compound 2a]
[1]; [5]
  IC50: 21.5 ± 0.9 µM

## CCCCCCCCCCCCCCNC(C1=C(O)C(=O)c2ccccc2C1=O)c1ccccc1F (stereo not shown) [Compound 2b, 3-[(Tetradecylamino)(2-fluorophenyl)methyl]-2-hydroxy-1,4-naphthoquinone]
HIV-1 [2]
  Reduction of HIV-1 infectivity: 75%
HIV-1 [3]
  Antiviral effect, reduction of GFP fluorescence expression (in words): no or weak antiviral effects
[1]; [5]
  IC50: 15 ± 5.1 µM

## CCCCCCCCCCCCCCNC(C1=C(O)C(=O)c2ccccc2C1=O)c1ccccc1Cl (stereo not shown) [Compound 2c, 3-[(Tetradecylamino)(2-chlorophenyl)methyl]-2-hydroxy-1,4-naphthoquinone]
HIV-1 [2]
  Reduction of HIV-1 infectivity: 46%
HIV-1 [3]
  Antiviral effect, reduction of GFP fluorescence expression (in words): no or weak antiviral effects
[1]; [5]
  IC50: 7.3 ± 4.7 µM

## CCCCCCCCCCCCNC(C1=C(O)C(=O)c2ccccc2C1=O)c1ccccc1O (stereo not shown) [Compound 2d]
HelaP4 cells
  Cytotoxicity (in words): displayed cytotoxicity
[1]; [6]
  IC50: 17.6 ± 3.8 µM

## CCCCCCCCCCCCCCNC(C1=C(O)C(=O)c2ccccc2C1=O)c1ccccc1O (stereo not shown) [Compound 2e, 3-[(Tetradecylamino)(2-hydroxyphenyl)methyl]-2-hydroxy-1,4-naphthoquinone]
HIV-1 [2]
  Antiviral activity against HIV-1 (in words): no antiviral activity
[1]; [5]
  IC50: 8.5 ± 1.6 µM

## CCCCCCCCCCCCCCCCNC(C1=C(O)C(=O)c2ccccc2C1=O)c1ccccc1O (stereo not shown) [Compound 2f]
HelaP4 cells
  Cytotoxicity (in words): displayed cytotoxicity
[1]; [6]
  IC50: 7 ± 0.9 µM

## O=C1C(O)=C(C(NCc2ccccc2)c2ccccc2O)C(=O)c2ccccc21 (stereo not shown) [Compound 2g]
[1]
  HIV-1 RNase H inhibitory activity (in words): inactive
[1]; [5]
  IC50: > 100 µM

## O=C1C(O)=C(C(Nc2ccccn2)c2ccccc2O)C(=O)c2ccccc21 (stereo not shown) [Compound 2h]
[1]
  HIV-1 RNase H inhibitory activity (in words): moderate activity
[1]; [5]
  IC50: 20.8 ± 0.2 µM

## CCCCCCCCCCCCNC(C1=C(O)C(=O)c2ccccc2C1=O)c1cc(Cl)cc(Cl)c1O (stereo not shown) [Compound 2i]
HIV-1 [2]
  Reduction of HIV-1 infectivity: 65%
HIV-1 [3]
  Antiviral effect, reduction of GFP fluorescence expression (in words): no or weak antiviral effects
[1]; [5]
  IC50: 4.7 ± 1.6 µM

## CCCCCCCCCCCCCCNC(C1=C(O)C(=O)c2ccccc2C1=O)c1cc(Cl)cc(Cl)c1O (stereo not shown) [Compound 2j, 3-[(Tetradecylamino)(3,5-dichloro-2-hydroxyphenyl)methyl]-2-hydroxy-1,4-naphthoquinone]
[1]; [5]
  IC50: 43.7 ± 3.5 µM

## CCCCCCCCCCCCCCCCNC(C1=C(O)C(=O)c2ccccc2C1=O)c1cc(Cl)cc(Cl)c1O (stereo not shown) [Compound 2k]
HIV-1 [3]
  Reduction of percentage of GFP-positive cells: half
MT4 cells
  Toxicity (in words): without exhibiting any toxicity
HIV-1 viral DNA
  Reduction of viral DNA levels: over 50%
SARS-CoV-2
  EC50: > 41.2 µM
  Inhibitory activity against SARS-CoV-2 replication (in words): inactive
In vitro
  CC50: 41.2 ± 1.3 µM
[1]; [6]
  IC50: 2.8 to 3.1 µM and 2.8 µM

## O=C1C(O)=C(C(NCc2ccccc2)c2cc(Cl)cc(Cl)c2O)C(=O)c2ccccc21 (stereo not shown) [Compound 2l, 3-[(Benzylamino)(3,5-dichloro-2-hydroxyphenyl)methyl]-2-hydroxy-1,4-naphthoquinone]
HIV-1 [2]
  Reduction of HIV-1 infectivity: 48%
HIV-1 [3]
  Antiviral effect, reduction of GFP fluorescence expression (in words): no or weak antiviral effects
[1]
  HIV-1 RNase H inhibitory activity (in words): moderate activities
[1]; [5]
  IC50: 12.7 ± 3.4 µM

## CCCCCCCCCCCCNC(C1=C(O)C(=O)c2ccccc2C1=O)c1cc(Br)cc(Br)c1O (stereo not shown) [Compound 2m]
HIV-1 [2]
  Antiviral activity against HIV-1 (in words): no antiviral activity
[1]; [5]
  IC50: 7.1 ± 1.1 µM

## CCCCCCCCCCCCCCNC(C1=C(O)C(=O)c2ccccc2C1=O)c1cc(Br)cc(Br)c1O (stereo not shown) [Compound 2n, 3-[(Tetradecylamino)(3,5-dibromo-2-hydroxyphenyl)methyl]-2-hydroxy-1,4-naphthoquinone]
[1]; [5]
  IC50: 105 ± 10.6 µM

## CCCCCCCCCCCCCCCCNC(C1=C(O)C(=O)c2ccccc2C1=O)c1cc(Br)cc(Br)c1O (stereo not shown) [Compound 2o]
[1]; [5]
  IC50: 32.5 ± 10.5 µM

## O=C1C(O)=C(C(NCc2ccccc2)c2cc(Br)cc(Br)c2O)C(=O)c2ccccc21 (stereo not shown) [Compound 2p, 3-[(Benzylamino)(3,5-dibromo-2-hydroxyphenyl)methyl]-2-hydroxy-1,4-naphthoquinone]
HIV-1 [2]
  Reduction of HIV-1 infectivity: 70%
HIV-1 [3]
  Antiviral effect, reduction of GFP fluorescence expression (in words): no or weak antiviral effects
[1]
  HIV-1 RNase H inhibitory activity (in words): moderate activities
[1]; [5]
  IC50: 19.6 ± 3.4 µM

## O=C1C=C(O)C(=O)c2ccccc21 [Lawsone, 2-Hydroxy-1,4-naphthoquinone]
[4]
  IC50, HIV-1 RT-associated RNase H activity: >100 µM
